# Data: US9260429B2, “Pyrido[3,4-B]indoles and methods of use” (Medivation Technologies, Inc., priority 2008, dated 2016)
# Experiments:
# [1] = biological target: T1, human recombinant histamine H2 receptor (Homo sapiens, UniProt P25021); experiment: Histamine H2 radioligand binding ([125I]Aminopotentidine); settings: 1 μM; inhibition of specific [125I]Aminopotentidine binding; read-out: Binding data (Percentage Inhibition) Histamine Binding (1 μM) H2
# T1 construct: expressed in transfected cells; host or cells: CHO-K1 cells
# T1 sequence (P25021 whole entry): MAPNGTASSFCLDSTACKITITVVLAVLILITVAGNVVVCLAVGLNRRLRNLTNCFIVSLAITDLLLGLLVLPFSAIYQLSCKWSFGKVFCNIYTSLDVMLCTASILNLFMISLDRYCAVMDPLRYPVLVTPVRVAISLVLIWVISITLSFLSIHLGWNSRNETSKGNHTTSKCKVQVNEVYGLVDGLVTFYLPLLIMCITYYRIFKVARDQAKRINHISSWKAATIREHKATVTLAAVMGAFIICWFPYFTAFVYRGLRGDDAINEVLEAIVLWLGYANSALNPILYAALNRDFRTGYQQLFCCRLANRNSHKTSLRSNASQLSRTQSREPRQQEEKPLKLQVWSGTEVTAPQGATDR
# In short: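 Membranes of CHO-K1 cells expressing human H2 receptor incubated with 0.1 nM [125I]aminopotentidine, 120 min, 25 °C, 50 mM phosphate pH 7.4; nonspecific binding defined with 3 μM tiotidine.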
# [2] = biological target: T2, human recombinant adrenergic α2A receptor (Homo sapiens, UniProt P08913); experiment: Adrenergic α2A radioligand binding ([3H]MK-912); settings: 1 h; read-out: Percent Inhibition of ligand binding Adrenergic (1 μM ligand conc.) α2A
# T2 construct: expressed in transfected cells; host or cells: insect Sf9 cells
# T2 sequence (P08913 1-465): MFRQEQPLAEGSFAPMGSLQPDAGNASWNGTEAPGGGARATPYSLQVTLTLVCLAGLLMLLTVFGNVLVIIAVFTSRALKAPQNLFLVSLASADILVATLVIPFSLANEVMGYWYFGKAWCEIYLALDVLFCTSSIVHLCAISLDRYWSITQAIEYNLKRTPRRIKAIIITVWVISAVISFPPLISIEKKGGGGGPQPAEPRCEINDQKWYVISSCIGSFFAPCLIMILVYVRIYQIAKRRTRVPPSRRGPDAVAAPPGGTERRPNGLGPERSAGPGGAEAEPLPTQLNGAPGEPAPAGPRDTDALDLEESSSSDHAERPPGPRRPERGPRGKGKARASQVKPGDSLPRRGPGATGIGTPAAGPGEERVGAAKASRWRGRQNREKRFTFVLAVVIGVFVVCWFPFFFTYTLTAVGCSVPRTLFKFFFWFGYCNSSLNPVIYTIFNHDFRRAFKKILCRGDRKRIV
# In short: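 Human α2A receptor expressed in Sf9 cells, in Tris-HCl pH 7.4 with 12.5 mM MgCl2 and 2 mM EDTA; 1 nM [3H]MK-912, 60 min at 25 °C. Non-specific binding defined with 10 μM WB-4101; filter counting.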
# [3] = biological target: T3, human recombinant adrenergic α2B receptor (Homo sapiens, UniProt P18089); experiment: Adrenergic α2B radioligand binding ([3H]Rauwolscine); settings: 1 h; read-out: Percent Inhibition of ligand binding Adrenergic (1 μM ligand conc.) α2B
# T3 construct: expressed in transfected cells; host or cells: CHO-K1 cells
# T3 sequence (P18089 1-450): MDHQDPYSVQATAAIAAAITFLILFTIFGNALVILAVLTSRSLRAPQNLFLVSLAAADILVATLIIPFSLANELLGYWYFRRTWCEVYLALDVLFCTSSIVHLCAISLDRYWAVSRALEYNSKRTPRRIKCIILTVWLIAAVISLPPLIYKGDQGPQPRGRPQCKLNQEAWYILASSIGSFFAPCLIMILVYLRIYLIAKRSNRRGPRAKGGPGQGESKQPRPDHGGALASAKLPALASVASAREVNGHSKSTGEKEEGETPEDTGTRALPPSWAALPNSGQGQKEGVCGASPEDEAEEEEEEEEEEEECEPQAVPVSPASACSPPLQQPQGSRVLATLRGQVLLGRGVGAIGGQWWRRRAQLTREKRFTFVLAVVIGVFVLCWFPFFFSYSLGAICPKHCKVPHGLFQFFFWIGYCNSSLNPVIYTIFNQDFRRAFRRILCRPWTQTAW
# In short: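 Human α2B receptor expressed in CHO-K1 cells, in 50 mM Tris-HCl pH 7.4, 12.5 mM MgCl2, 1 mM EDTA, 0.2% BSA. Binding of 2.5 nM [3H]Rauwolscine, 60 min at 25° C, filtration; non-specific defined with 10 μM prazosin.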
# [4] = biological target: T4, human recombinant serotonin (5-Hydroxytryptamine) 5-HT2A receptor (Homo sapiens, UniProt P28223); experiment: Serotonin 5-HT2A radioligand binding ([3H]Ketanserin); settings: 1 h; read-out: Percent Inhibition of ligand binding Serotonin (1 μM ligand concentration) 5-HT2A
# T4 construct: expressed in transfected cells; host or cells: CHO-K1 cells
# T4 sequence (P28223 whole entry): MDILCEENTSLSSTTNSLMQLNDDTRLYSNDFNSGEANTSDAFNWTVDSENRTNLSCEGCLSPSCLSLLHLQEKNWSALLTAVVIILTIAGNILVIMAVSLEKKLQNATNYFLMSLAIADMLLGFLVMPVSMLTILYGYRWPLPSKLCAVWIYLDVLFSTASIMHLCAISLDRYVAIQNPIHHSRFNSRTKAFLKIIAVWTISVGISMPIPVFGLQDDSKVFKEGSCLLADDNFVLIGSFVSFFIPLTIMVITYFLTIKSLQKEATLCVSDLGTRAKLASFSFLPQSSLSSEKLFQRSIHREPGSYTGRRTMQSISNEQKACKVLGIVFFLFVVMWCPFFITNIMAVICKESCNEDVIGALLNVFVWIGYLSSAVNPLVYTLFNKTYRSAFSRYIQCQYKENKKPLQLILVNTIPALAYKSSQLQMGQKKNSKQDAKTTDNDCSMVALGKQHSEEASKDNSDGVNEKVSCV
# In short: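 Membranes from CHO-K1 cells expressing the receptor, in 50 mM Tris-HCl pH 7.4, incubated 60 min at 25° C with 0.5 nM [3H]Ketanserin; 1 μM Mianserin defines non-specific binding. Filtration and counting; values are % inhibition of specific binding at 1 μM or lower, 1% DMSO.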
compound,measurement,setting,value
C/C(=C\n1c2c(c3cc(Cl)ccc31)CCN(C)C2C)c1ccccc1F (stereo not shown) [Compound 168],inhibition at 1 µM,[1],64%
same,inhibition at 1 µM,[2],74%
same,inhibition at 1 µM,[3],82%
same,inhibition at 1 µM,[4],94%
